Source: publication PMC8944987, “In Vivo Efficacy of SQ109 against Leishmania donovani, Trypanosoma spp. and Toxoplasma gondii and In Vitro Activity of SQ109 Metabolites” (Biomedicines, 2022)
Read-outs that look alike come from different tables or passages of the source.

Legend:
[1] = test system: T. b. brucei Lister strain 427 bloodstream form (BSF); assay: In vitro activity assay for T. brucei (resazurin growth inhibition); type: cell-based; details: Trypanosoma brucei
[2] = test system: T. cruzi Dm28c epimastigotes; assay: T. cruzi epimastigotes assay (resazurin); type: cell-based; details: Trypanosoma cruzi, read-out: T. cruzi Dm28c EC50 (EPI)
Protocol: The exponential growth phase of epimastigotes were treated with different concentrations of drugs or 0.1% DMSO as negative control and incubated for 3 days at 28 °C. The viability of parasites was quantified with resazurin as described in the T. brucei assay.

[3] = test system: intracellular T. cruzi Dm28c amastigotes in U2OS; assay: T. cruzi intracellular amastigotes assay in U2OS (image based); type: cell-based; details: Trypanosoma cruzi; for EC50: read-out: T. cruzi Dm28c EC50 (AMA)
Protocol: (§1) U2OS human osteosarcoma cells were maintained in DMEM supplemented with high glucose, 10% FBS, and 1% P/S at 37 °C with 5% CO2 in air. […] Cell images were acquired by an automated image analyzer (Operetta, Perkin Elmer Technology, Waltham, MA, USA); analysis included at least 1000 cells in five fields per well. For the imaging of infected cells and parasites, Draq-5 was observed under a 20× air objective. An image analysis algorithm (Columbus, Perkin Elmer Technology) was used to detect the Draq-5 signal in the nuclei of cells and parasites as described in a previous article and shown in Supplementary Figure S1 [20]. The number of parasites was defined by the value of the number of parasites in infected cells of the acquired image.

[4] = Host cell toxicity in the T. cruzi amastigote assay; type: cell-based; details: human, amastigote host cells; read-out: T. cruzi Dm28c CC50 (U2OS)
Protocol: as §1

[5] = test system: L. donovani promastigotes; assay: L. donovani promastigotes assay (resazurin); type: cell-based; details: for EC50: read-out: L. donovani EC50 (PRO)
[6] = test system: T. cruzi; parameters: method as in earlier work; details: amiodarone acting alone; reported previously; ref 5 (b3); cited from earlier work
[7] = test system: T. cruzi Dm28c; assay: T. cruzi acute in vivo mouse model; parameters: species or system BALB/c mice; details: 100 mg/kg p.o.
Excerpt: BALB/c mice were infected with TCT of T. cruzi Dm28c (10^7 cells) by i.p. injection. Five days post-infection, infected mice were sacrificed to collect BSF of T. cruzi. BALB/c mice were intraperitoneally infected with BSF of T. cruzi Dm28c (5 × 10^4 cells). Five days post-infection, BALB/c mice were infected with previously collected 2nd-round BSF cells (3 × 10^4 cells). Mice were divided into groups (n = 10) and treated orally with drugs for 5 consecutive days for 2 weeks by starting from day 2 post-infection administration of DPBS, 100 mg/kg of benznidazole, or 100 mg/kg of SQ109 via p.o. route, respectively. Parasitemia was evaluated every 2 days for 5 weeks by blood collection from the mouse tail vein, and survival was monitored for 2 months. Mice showing impaired health status were euthanized.

[8] = test system: intracellular L. donovani amastigotes in THP-1; assay: L. donovani intracellular amastigotes assay in THP-1 (image based); type: cell-based; details: Leishmania donovani, 72 h; differentiated THP-1 host cells, 3 days of compound incubation; Figure 2F
[9] = test system: THP-1 human monocyte cell line; assay: Host cell toxicity in the L. donovani amastigote assay; type: cell-based; details: 3 days of compound incubation; Figure 2F
Protocol: The THP-1 human monocyte cell line was grown in RPMI-1640 medium (Welgene, Gyeongsangbuk-do, Republic of Korea) supplemented with 10% FBS and 1% P/S. For differentiation, THP-1 cells were treated for 3 days with 50 ng/mL of PMA [20]. […] An image analysis was performed as described in the T. cruzi assay (Figure S2).

[10] = test system: L. donovani amastigotes; assay: L. donovani (VL) in vivo mouse model, liver LDU; parameters: species or system BALB/c mice; details: 30 mg/kg
Protocol: BALB/c mice (n = 5) were injected with 2 × 10^7 hamster spleen-derived L. donovani amastigotes via the retro-orbital venous sinus route. From day 7 post-infection, groups of mice were treated using the drug vehicle only, miltefosine (30 mg/kg), or SQ109 (30, 50, 100 mg/kg). On day 16 post-infection, all animals were humanely euthanized and assessed microscopically using Giemsa-stained liver imprints. […] The LDU values for the drug-treated samples were compared to those of the untreated samples.

[11] = bloodstream forms, read-out: T. brucei BSF EC50 (converted)
[12] = Leishmania donovani, promastigotes

EC50 ([2]; epimastigotes) | EC50 ([3]; amastigotes in U2OS) | EC50 [5, 12] | Structure (SMILES) | EC50 [1, 11] | CC50 at 3 days [4] | further results
> 100 µM | 40 µM | 21 µM | CC(C)=CCC/C(C)=C/CN [Compound 17] | 32 µM | > 100 µM | 
> 100 µM | 50 µM | 51 µM | NC1C2CC3CC(C2)CC1C3 (centres unmarked) [Compound 18] | 71 µM | > 100 µM | 
> 100 µM | > 100 µM | 6 µM | CC(C)=CCC/C(C)=C/CNCCN [Compound 20] | 2.2 µM | > 100 µM | 
14 µM | 3 µM | 1.27 µM | CC(C)=CCC/C(C)=C/CNCCNC1C2CC3CC(C2)CC1(O)C3 (centres unmarked) [Compound 21] | 3.2 µM | 6.8 µM | EC50 ([5]; promastigotes): 1.3 µM
23 µM | 7.5 µM | 3.54 µM | CC(C)=CCC/C(C)=C/CNCCNC1C2CC3CC1CC(O)(C3)C2 (centres unmarked) [Compound 22] | 2.9 µM | 29 µM | EC50 ([5]; promastigotes): 3.5 µM
20 µM | 4.3 µM | 2.3 µM | CC(C)=CCC/C(C)=C/CNCCNC1C2CC3CC1CC(C2)C3O (centres unmarked) [Compound 23] | 1.8 µM | 17 µM | 
14 µM | 3.2 µM | 1.1 µM | CC(C)=CCC/C(C)=C/CNCCNC1C2CC3CC(C2)C(O)C1C3 (centres unmarked) [Compound 24] | 1.8 µM | 14 µM | 

Continued, compound first:

Structure (SMILES) | EC50 ([2]; epimastigotes) | EC50 ([3]; amastigotes in U2OS) | EC50 [5, 12] | EC50 [1, 11] | CC50 at 3 days [4] | further results
NCCNC1C2CC3CC(C2)CC1C3 (centres unmarked) [Compound 7] | 56 µM | 25 µM | 22 µM | 4.6 µM | > 100 µM | 
C/C(=C\CC/C(C)=C/CNCCNC1C2CC3CC(C2)CC1C3)CO (centres unmarked) [Compound 9] | 28 µM | 4.9 µM | 2.9 µM | 5.4 µM | 27 µM | 
C/C(=C\CNCCNC1C2CC3CC(C2)CC1C3)CCC(=O)C(C)C (centres unmarked) [Compound 12] | 45 µM | 6.9 µM | 0.55 µM | 2 µM | 32 µM | 
CC(C)=CCC/C(C)=C/C=O [Compound 13] | > 100 µM | > 100 µM | > 100 µM | 2.3 µM | > 100 µM | 
CC(C)=CCC/C(C)=C/C(=O)O [Compound 14] | > 100 µM | > 100 µM | > 100 µM | 13 µM | > 100 µM | 
CC(C)=CCCC(C)=CC=NO [Compound 15a] | > 100 µM | > 100 µM | > 100 µM | > 200 µM | > 100 µM | 
CC(C)=CCCC1(C)CC=NO1 (centres unmarked) [Compound 15b] | > 100 µM | > 100 µM | > 100 µM | > 200 µM | > 100 µM | 
ON=C1C2CC3CC(C2)CC1C3 [Compound 16] | > 100 µM | > 100 µM | > 100 µM | > 200 µM | > 100 µM | 
O=C1C2CC3CC(C2)CC1C3 [Compound 19] |  |  |  |  | > 100 µM | EC50 ([1]; read-out: T. brucei BSF EC50): > 200 µM; EC50 [2]: > 100 µM; EC50 ([3]; U2OS): > 100 µM; EC50 ([5]; Leishmania donovani): > 100 µM
CCCCc1oc2ccccc2c1C(=O)c1cc(I)c(OCCN(CC)CC)c(I)c1 [amiodarone] |  |  |  |  |  | survival in T. cruzi infection [6]: 40%
O=C(Cn1ccnc1[N+](=O)[O-])NCc1ccccc1 [benznidazole] |  |  |  |  |  | IC50 ([3]; 72 h, U2OS host cells, 3 days of compound incubation, Figure 2D, read-out: IC50, intracellular T. cruzi amastigote survival): 1.71 µM; survival of T. cruzi infected mice, in words ([7]; 40 days after infection): protected all the mice from death; parasitemia, in words ([7]; entire experimental period): complete suppression of parasitemia
CCCCCCCCCCCCCCCCOP(=O)([O-])OCC[N+](C)(C)C [miltefosine] |  |  |  |  |  | IC50 ([5]; Leishmania donovani, 72 h, Figure 2E, read-out: IC50, L. donovani promastigote growth): 0.171 µM; IC50 [8]: 1.51 µM; host cell (THP-1) toxicity, in words [9]: no host cell toxicity was observed at the highest tested dose; parasite burden in liver (LDU) ([10]; 5 days of treatment): 142 ± 24 LDU; parasite reduction ([10]; versus vehicle-treated group): 87.5%
N=C(N)c1ccc(OCCCCCOc2ccc(C(=N)N)cc2)cc1 [pentamidine, reference compound] |  |  |  |  |  | IC50 ([1]; 3 days (72 h) of compound incubation, Figure 2A, read-out: IC50, T. brucei trypomastigote viability): 0.15 µM
